Source: patent US11213555B2, “Intravenous injection for enhancing immune function” (priority 2016, dated 2022)
Read-outs that look alike come from different tables or passages of the source. Ends that are not written are not given here.

What was measured:
[1] = Spleen index (immune organ index) in normal mice; settings: 0.2 mg/kg via tail vein, once a day for five days, 2 h after last dose
[2] = Spleen index (immune organ index) in immunosuppressed mouse models; settings: immunosuppressed mice (dexamethasone 40 mg/kg i.p., five days); 0.2 mg/kg via tail vein, once a day for five days
[3] = system: Ehrlich ascites carcinoma; assay: Body weight gain and spleen index of Ehrlich ascites carcinoma mice; settings: EAC ICR mice; 0.2 mg/kg via tail vein, one day before inoculation then 7 consecutive days
monocytes-macrophages [4] = assay: Carbon clearance assay, phagocytosis of monocytes-macrophages in normal mice; settings: normal Kunming mice; 0.2 mg/kg via tail vein, once a day for five days; 2 h after last dose
monocytes-macrophages [5] = settings: immunosuppressed mice (dexamethasone 40 mg/kg i.p., five days); 0.2 mg/kg via tail vein, once a day for five days

RKDVY [Thymopentin, thymopentin]
Spleen index (%) [1]: 0.642 ± 0.091%
Spleen index (%) [2]: 0.546 ± 0.097^ΔΔ %
Body weight gain [3]: 6.190 ± 2.087 g
Spleen index (%) [3]: 0.221 ± 0.036%
Carbon clearance index K × 10^3 (monocytes-macrophages [4]): 4.874 ± 0.582 ^
Carbon clearance index K × 10^3 (monocytes-macrophages [5]): 7.773 ± 1.018^ΔΔ
